Results taken from US8853418B2, “Cyclopentylpyrazoles as N-type calcium channel blockers” (Janssen Pharmaceutica NV, priority 2012, dated 2014).

Molecular target: N-type calcium channel (α1B (Cav2.2), β3 and α2δ subunits) (Homo sapiens, UniProt Q00975)
Assay: Functional Assay: Antagonism of N-Type Calcium Channel (FDSS calcium mobilization, KCl depolarization)
Type: cell-based
Conditions: for IC50: HEK cell line, 50 mM KCl depolarization, six-point concentration-response, read-out: FDSS IC50
Protocol: A stable cell line (HEK parent) co-expressing the α1B (Cav2.2), β3 and α2δ subunits of the N-type calcium channel subunits was used. These cells were routinely grown as monolayers in low glucose-containing Dulbecco's Modified Eagle Medium supplemented with 10% FBS, 2 mM L-glutamine, 100 I.U./mL penicillin, 100 μg/mL streptomycin, 400 μg/mL G418 and 200 μg/mL Zeocin (split ratio=1:5). Cells were maintained in 5% CO2 at 37° C. Compounds of Formula (I) were prepared as 10 mM stocks in DMSO from neat compound, if available. Otherwise, the 5 or 10 mM DMSO stock solutions provided in-house were used.
Calcium mobilization responses to KCl depolarization were evaluated by measuring the intensity of calcium-mediated fluorescent signal in the presence of BD Calcium Assay Dye (BD Biosciences, Franklin Lakes, N.J., U.S.A.), utilizing a Functional Drug Screening System (FDSS) by Hamamatsu Corporation (Bridgewater, N.J. U.S.A.).
Twenty-four hr prior to assay, cells were seeded in clear-base poly-D-lysine-coated 384-well plates (BD Biosciences) at a density of 5,000 cells per well in culture medium and grown overnight in 5% CO2 at 37° C. On the day of assay, growth media were removed, and cells were loaded with BD calcium assay dye (BD Biosciences) for 35 min at 37° C. under 5% CO2 and then for 25 min at room temp. Utilizing the FDSS, cells were exposed to representative compounds of Formula (I) at varying concentrations, and intracellular calcium was measured for 5 min prior to the addition of 50 mM KCl for an additional 3 min of measurement.
Calculations and Formulas
IC50 values for representative compounds of Formula (I) were determined from six-point concentration-response experiments and represent the concentration of said compound required to inhibit 50% of the maximal response. Maximal fluorescence intensity (FI) achieved upon addition of 50 mM KCl was exported from the FDSS software and further analyzed using GraphPad Prism 3.02 (Graph Pad Software Inc., San Diego, Calif., U.S.A.). Data were normalized to the maximum average counts from quadruplicate wells for each condition in the presence of 50 mM KCl and to the minimum average counts in the presence of buffer. Theoretical curves were generated using nonlinear regression curve-fitting analysis of either sigmoidal concentration-response or sigmoidal concentration-response (variable slope), and the IC50 values with the best-fit curve determined by GraphPad Prism were reported.

N-type calcium channel (α1B (Cav2.2), β3 and α2δ subunits), sequence (Q00975 whole entry): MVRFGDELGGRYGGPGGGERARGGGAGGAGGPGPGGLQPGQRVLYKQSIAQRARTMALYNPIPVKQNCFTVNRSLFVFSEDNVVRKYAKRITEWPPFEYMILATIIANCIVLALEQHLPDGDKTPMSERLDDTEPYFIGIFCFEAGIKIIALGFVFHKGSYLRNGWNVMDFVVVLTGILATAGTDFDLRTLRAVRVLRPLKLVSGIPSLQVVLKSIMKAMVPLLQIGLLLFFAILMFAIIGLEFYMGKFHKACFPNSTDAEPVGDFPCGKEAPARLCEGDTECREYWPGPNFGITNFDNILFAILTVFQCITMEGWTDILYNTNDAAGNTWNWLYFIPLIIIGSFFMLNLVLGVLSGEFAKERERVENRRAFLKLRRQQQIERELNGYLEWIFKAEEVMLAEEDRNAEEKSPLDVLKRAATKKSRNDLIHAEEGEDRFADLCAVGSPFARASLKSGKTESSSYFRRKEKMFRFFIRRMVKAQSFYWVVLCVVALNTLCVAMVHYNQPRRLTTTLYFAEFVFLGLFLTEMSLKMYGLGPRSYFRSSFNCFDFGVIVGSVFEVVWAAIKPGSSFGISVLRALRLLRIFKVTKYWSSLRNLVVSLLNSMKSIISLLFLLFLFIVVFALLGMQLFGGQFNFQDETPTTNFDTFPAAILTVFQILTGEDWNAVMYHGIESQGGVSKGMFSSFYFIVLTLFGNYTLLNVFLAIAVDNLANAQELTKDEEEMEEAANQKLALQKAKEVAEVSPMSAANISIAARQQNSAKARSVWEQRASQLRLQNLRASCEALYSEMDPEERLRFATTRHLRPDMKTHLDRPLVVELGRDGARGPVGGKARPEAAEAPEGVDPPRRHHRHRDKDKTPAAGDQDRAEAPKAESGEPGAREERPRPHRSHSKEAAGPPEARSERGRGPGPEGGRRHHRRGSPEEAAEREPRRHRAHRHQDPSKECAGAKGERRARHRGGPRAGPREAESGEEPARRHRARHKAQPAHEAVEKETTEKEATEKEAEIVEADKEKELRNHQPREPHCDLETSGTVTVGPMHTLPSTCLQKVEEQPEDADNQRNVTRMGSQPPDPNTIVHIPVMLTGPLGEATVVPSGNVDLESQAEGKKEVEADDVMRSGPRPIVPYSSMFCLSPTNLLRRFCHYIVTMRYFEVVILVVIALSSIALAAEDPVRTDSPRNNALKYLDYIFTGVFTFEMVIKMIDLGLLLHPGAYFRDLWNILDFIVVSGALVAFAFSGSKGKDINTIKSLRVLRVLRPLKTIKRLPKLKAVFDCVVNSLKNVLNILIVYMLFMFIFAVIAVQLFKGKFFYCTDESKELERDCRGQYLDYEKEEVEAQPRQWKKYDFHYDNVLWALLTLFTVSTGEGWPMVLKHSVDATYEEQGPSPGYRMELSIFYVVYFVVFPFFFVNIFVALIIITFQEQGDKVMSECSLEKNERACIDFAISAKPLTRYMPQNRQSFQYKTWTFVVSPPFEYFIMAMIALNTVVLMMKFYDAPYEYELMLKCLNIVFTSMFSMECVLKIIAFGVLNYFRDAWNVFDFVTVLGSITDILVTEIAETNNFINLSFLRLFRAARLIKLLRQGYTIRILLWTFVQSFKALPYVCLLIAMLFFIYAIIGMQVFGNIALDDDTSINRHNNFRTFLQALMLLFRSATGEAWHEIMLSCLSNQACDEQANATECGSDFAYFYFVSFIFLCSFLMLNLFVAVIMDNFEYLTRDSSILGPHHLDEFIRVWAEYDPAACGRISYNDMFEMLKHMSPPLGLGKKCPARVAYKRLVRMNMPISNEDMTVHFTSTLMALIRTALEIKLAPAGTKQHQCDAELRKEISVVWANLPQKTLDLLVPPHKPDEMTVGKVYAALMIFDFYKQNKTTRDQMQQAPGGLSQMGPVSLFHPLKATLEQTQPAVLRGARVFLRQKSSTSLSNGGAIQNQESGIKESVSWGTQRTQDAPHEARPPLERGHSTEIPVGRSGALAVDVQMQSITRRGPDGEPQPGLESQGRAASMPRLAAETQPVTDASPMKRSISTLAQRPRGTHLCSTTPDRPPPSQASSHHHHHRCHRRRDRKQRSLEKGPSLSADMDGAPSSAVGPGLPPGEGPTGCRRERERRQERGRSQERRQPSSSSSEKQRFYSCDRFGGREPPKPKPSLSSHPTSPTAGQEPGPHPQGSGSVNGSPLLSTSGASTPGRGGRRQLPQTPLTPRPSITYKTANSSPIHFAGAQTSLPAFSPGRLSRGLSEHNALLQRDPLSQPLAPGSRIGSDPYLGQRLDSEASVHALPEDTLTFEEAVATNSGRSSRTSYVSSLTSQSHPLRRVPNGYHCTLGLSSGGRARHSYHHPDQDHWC
N-type calcium channel (α1B (Cav2.2), β3 and α2δ subunits), sequence (P54284 whole entry partner): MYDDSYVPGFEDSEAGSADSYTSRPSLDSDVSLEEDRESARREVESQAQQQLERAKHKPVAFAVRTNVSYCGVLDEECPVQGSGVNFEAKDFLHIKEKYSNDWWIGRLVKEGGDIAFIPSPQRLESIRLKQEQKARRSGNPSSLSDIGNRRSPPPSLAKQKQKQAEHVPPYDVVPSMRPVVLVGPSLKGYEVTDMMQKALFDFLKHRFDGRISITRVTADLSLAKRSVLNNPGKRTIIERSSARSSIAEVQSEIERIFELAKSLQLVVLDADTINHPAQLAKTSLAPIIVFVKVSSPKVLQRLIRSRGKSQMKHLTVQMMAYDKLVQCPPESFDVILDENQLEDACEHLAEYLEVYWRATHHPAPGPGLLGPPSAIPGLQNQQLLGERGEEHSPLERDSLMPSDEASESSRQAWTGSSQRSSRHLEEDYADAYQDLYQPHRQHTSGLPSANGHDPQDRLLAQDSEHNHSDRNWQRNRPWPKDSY
N-type calcium channel (α1B (Cav2.2), β3 and α2δ subunits), sequence (P54289 25-946 partner limits assumed): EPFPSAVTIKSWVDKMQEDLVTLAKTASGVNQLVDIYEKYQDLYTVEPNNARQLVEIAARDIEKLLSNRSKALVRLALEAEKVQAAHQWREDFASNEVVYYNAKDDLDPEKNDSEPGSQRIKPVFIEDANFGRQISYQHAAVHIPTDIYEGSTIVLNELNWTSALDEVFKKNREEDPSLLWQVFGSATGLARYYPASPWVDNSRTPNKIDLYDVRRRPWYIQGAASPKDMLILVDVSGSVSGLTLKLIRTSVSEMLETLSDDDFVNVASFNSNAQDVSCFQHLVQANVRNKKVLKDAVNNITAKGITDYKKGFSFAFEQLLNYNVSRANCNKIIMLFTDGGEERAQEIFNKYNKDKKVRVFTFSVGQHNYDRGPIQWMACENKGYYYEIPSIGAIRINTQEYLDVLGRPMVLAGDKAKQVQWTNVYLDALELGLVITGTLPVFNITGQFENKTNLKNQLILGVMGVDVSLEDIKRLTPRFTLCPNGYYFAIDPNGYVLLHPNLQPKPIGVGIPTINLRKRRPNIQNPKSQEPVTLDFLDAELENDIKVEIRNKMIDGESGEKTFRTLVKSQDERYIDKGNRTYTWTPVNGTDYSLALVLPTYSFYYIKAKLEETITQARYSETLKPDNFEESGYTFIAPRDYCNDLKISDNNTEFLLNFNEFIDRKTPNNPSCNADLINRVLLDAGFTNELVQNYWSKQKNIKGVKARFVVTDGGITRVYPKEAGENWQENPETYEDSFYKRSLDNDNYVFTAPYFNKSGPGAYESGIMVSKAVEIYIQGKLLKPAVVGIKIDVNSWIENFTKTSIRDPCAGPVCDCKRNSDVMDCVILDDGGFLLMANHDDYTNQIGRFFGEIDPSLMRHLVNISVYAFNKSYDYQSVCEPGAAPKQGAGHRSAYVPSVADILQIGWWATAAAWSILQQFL
N-type calcium channel (α1B (Cav2.2), β3 and α2δ subunits), sequence (P54289 947-1103 partner limits assumed): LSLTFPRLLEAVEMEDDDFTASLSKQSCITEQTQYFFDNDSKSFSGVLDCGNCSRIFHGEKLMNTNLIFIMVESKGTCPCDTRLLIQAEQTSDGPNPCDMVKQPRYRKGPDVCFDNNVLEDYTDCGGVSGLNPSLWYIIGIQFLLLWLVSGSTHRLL

| SMILES | inhibition at 0.33 µM | IC50 | inhibition at 1 µM |
| --- | --- | --- | --- |
| CCOC(=O)c1cncc(C2Cc3nn(-c4ccccc4OC)c(-c4ccc(Cl)cc4)c3C2)c1 (stereo not drawn) [Compound 66, Ethyl 5-[3-(4-chlorophenyl)-2-(2-methoxyphenyl)-2,4,5,6-tetrahydrocyclopenta[c]pyrazol-5-yl]pyridine-3-carboxylate] | 79% | 66 nM |  |
| CCC(CC)CO[C@@H]1Cc2nn(-c3ccccc3OC)c(-c3ccc(Cl)cc3)c2C1 [Compound 72, (5S)-3-(4-chlorophenyl)-5-(2-ethylbutoxy)-2-(2-methoxyphenyl)-2,4,5,6-tetrahydrocyclopenta[c]pyrazole] | 78% | 61 nM |  |
| COc1ccccc1-n1nc2c(c1-c1ccccc1)CC(C#N)C2 (stereo not drawn) [Compound 9, 2-(2-methoxyphenyl)-3-phenyl-2,4,5,6-tetrahydrocyclopenta[c]pyrazole-5-carbonitrile] | 59% |  |  |
| COc1ccccc1-n1nc2c(c1-c1ccc(C#N)cc1)C[C@H](n1c(C)nc(C)c1C)C2 [Compound 132, 4-[(5S)-2-(2-methoxyphenyl)-5-(2,4,5-trimethyl-1H-imidazol-1-yl)-2,4,5,6-tetrahydrocyclopenta[c]pyrazol-3-yl]benzonitrile] | 29% |  |  |
| CCOc1ccccc1-n1nc2c(c1-c1ccc(Cl)cc1)CC(N1CCCC1=O)C2 (stereo not drawn) [Compound 40, 1-[3-(4-chlorophenyl)-2-(2-ethoxyphenyl)-2,4,5,6-tetrahydrocyclopenta[c]pyrazol-5-yl]pyrrolidin-2-one] |  | 19 nM |  |
| COc1ccccc1-n1nc2c(c1-c1ccc(Cl)cc1)CC(=O)C2 [Compound 35, 3-(4-chlorophenyl)-2-(2-methoxyphenyl)-2,6-dihydrocyclopenta[c]pyrazol-5(4H)-one] |  | 59 nM |  |
| COc1ccccc1-n1nc2c(c1-c1ccc(Cl)cc1)C/C(=N/O)C2 [Compound 53, (5Z)-3-(4-chlorophenyl)-2-(2-methoxyphenyl)-2,6-dihydrocyclopenta[c]pyrazol-5(4H)-one oxime] | 31% |  |  |
| COc1ccccc1-n1nc2c(c1-c1ccc(Cl)cc1)C[C@H](Oc1cccnc1)C2 [Compound 59, (5S)-3-(4-chlorophenyl)-2-(2-methoxyphenyl)-5-(pyridin-3-yloxy)-2,4,5,6-tetrahydrocyclopenta[c]pyrazole] | 76% | 94 nM |  |
| COc1ccccc1-n1nc2c(c1-c1ccc(Cl)cc1)CC(c1ccc(C(C)C)nc1Cl)C2 (stereo not drawn) [Compound 75, 5-[2-Chloro-6-(1-methylethyl)pyridin-3-yl]-3-(4-chlorophenyl)-2-(2-methoxyphenyl)-2,4,5,6-tetrahydrocyclopenta[c]pyrazole] | 53% | 230 nM |  |
| COc1ccccc1-n1nc2c(c1-c1ccc(C#N)cc1)C[C@H](n1cnc(C)c1C)C2 [Compound 131, 4-[(5S)-5-(4,5-dimethyl-1H-imidazol-1-yl)-2-(2-methoxyphenyl)-2,4,5,6-tetrahydrocyclopenta[c]pyrazol-3-yl]benzonitrile] | 67% | 105 nM |  |
| CCOc1ccc(-c2c3c(nn2-c2ccccc2OC)CC2(C3)OCC(C)(C)CO2)cn1 [Compound 94, 3-(6-ethoxypyridin-3-yl)-2-(2-methoxyphenyl)-5′,5′-dimethyl-2,6-dihydro-4H-spiro[cyclopenta[c]pyrazole-5,2′-[1,3]dioxane]] | 81% | 60 nM |  |
| COc1ccccc1-n1nc2c(c1-c1ccc(Cl)cc1)CC(c1ccc(N3CCOCC3)nc1)C2 (stereo not drawn) [Compound 62, 3-(4-chlorophenyl)-2-(2-methoxyphenyl)-5-(6-morpholin-4-ylpyridin-3-yl)-2,4,5,6-tetrahydrocyclopenta[c]pyrazole] | 42% |  |  |
| CCc1nc(C)c(C)n1[C@@H]1Cc2nn(-c3ccccc3OC)c(-c3ccc(C#N)cc3)c2C1 [Compound 133, 4-[(5S)-5-(2-ethyl-4,5-dimethyl-1H-imidazol-1-yl)-2-(2-methoxyphenyl)-2,4,5,6-tetrahydrocyclopenta[c]pyrazol-3-yl]benzonitrile] | 35% |  |  |
| COc1ccccc1-n1nc2c(c1-c1ccc(Cl)cc1)CC(O)C2 (stereo not drawn) [Compound 26, 3-(4-chlorophenyl)-2-(2-methoxyphenyl)-2,4,5,6-tetrahydrocyclopenta[c]pyrazol-5-ol] |  |  | 62% |
| C=CCC1Cc2nn(-c3ccccc3OC)c(-c3ccc(Cl)cc3)c2C1 (stereo not drawn) [Compound 4, 3-(4-chlorophenyl)-2-(2-methoxyphenyl)-5-prop-2-en-1-yl-2,4,5,6-tetrahydrocyclopenta[c]pyrazole] |  |  | 81% |
| CS(=O)(=O)NCCC1Cc2nn(-c3ccccc3C(F)(F)F)c(-c3ccc(Cl)cc3)c2C1 (stereo not drawn) [Compound 21, N-(2-{3-(4-chlorophenyl)-2-[2-(trifluoromethyl)phenyl]-2,4,5,6-tetrahydrocyclopenta[c]pyrazol-5-yl}ethyl)methanesulfonamide] |  |  | 65% |
| CN(C)C(=O)OC1Cc2nn(-c3ccccc3OC(F)(F)F)c(-c3ccc(Cl)cc3)c2C1 (stereo not drawn) [Compound 23, 3-(4-chlorophenyl)-2-[2-(trifluoromethoxy)phenyl]-2,4,5,6-tetrahydrocyclopenta[c]pyrazol-5-yl dimethylcarbamate] |  | 140 nM |  |
| COc1ccccc1-n1nc2c(c1-c1ccc(C)nc1)CC1(C2)OCC(C)(C)CO1 [Compound 95, 2-(2-methoxyphenyl)-5′,5′-dimethyl-3-(6-methylpyridin-3-yl)-2,6-dihydro-4H-spiro[cyclopenta[c]pyrazole-5,2′-[1,3]dioxane]] | 67% | 110 nM |  |
| COc1ccccc1-n1nc2c(c1-c1ccc(Cl)cc1)C[C@H](OC(=O)C1CCOCC1)C2 [Compound 86, (5S)-3-(4-chlorophenyl)-2-(2-methoxyphenyl)-2,4,5,6-tetrahydrocyclopenta[c]pyrazol-5-yl tetrahydro-2H-pyran-4-carboxylate] | 82% | 82 nM |  |
| COc1ccccc1-n1nc2c(c1-c1ccc(C#N)cc1)C[C@H](n1cc(COC(C)=O)nn1)C2 [Compound 128, {1-[(5S)-3-(4-cyanophenyl)-2-(2-methoxyphenyl)-2,4,5,6-tetrahydrocyclopenta[c]pyrazol-5-yl]-1H-1,2,3-triazol-4-yl}methyl acetate] | 59% | 170 nM |  |
| COCc1cn([C@@H]2Cc3nn(-c4ccccc4OC)c(-c4ccc(C#N)cc4)c3C2)nn1 [Compound 129, 4-[(5S)-5-[4-(methoxymethyl)-1H-1,2,3-triazol-1-yl]-2-(2-methoxyphenyl)-2,4,5,6-tetrahydrocyclopenta[c]pyrazol-3-yl]benzonitrile] | 47% |  |  |
| COc1ccccc1-n1nc2c(c1-c1ccc(Cl)s1)CC1(C2)OC(C)(C)C(C)(C)O1 [Compound 121, 3-(5-chlorothiophen-2-yl)-2-(2-methoxyphenyl)-4′,4′,5′,5′-tetramethyl-2,6-dihydro-4H-spiro[cyclopenta[c]pyrazole-5,2′-[1,3]dioxolane]] | 86% | 30 nM |  |
| COc1ccccc1-n1nc2c(c1-c1ccc(C#N)cc1)C[C@H](n1cc(C(C)(C)O)nn1)C2 [Compound 126, 4-[(5S)-5-[4-(1-hydroxy-1-methylethyl)-1H-1,2,3-triazol-1-yl]-2-(2-methoxyphenyl)-2,4,5,6-tetrahydrocyclopenta[c]pyrazol-3-yl]benzonitrile] | 33% |  |  |
| CC(C)(C)OC(=O)NCCC1Cc2nn(-c3ccccc3C(F)(F)F)c(-c3ccc(Cl)cc3)c2C1 (stereo not drawn) [Compound 20, tert-butyl(2-{3-(4-chlorophenyl)-2-[2-(trifluoromethyl)phenyl]-2,4,5,6-tetrahydrocyclopenta[c]pyrazol-5-yl}ethyl)carbamate] |  | 260 nM |  |
| CCOc1ccc(C2Cc3nn(-c4ccccc4OC)c(-c4ccc(Cl)cc4)c3C2)cn1 (stereo not drawn) [Compound 74, 3-(4-chlorophenyl)-5-(6-ethoxypyridin-3-yl)-2-(2-methoxyphenyl)-2,4,5,6-tetrahydrocyclopenta[c]pyrazole] | 61% | 150 nM |  |
| CCc1ccccc1-n1nc2c(c1-c1ccc(Cl)cc1)CC(CNC(=O)C(F)(F)F)C2 (stereo not drawn) [Compound 19, N-{[3-(4-chlorophenyl)-2-(2-ethylphenyl)-2,4,5,6-tetrahydrocyclopenta[c]pyrazol-5-yl]methyl}-2,2,2-trifluoroacetamide] |  | 130 nM |  |
| CCc1nnn([C@@H]2Cc3nn(-c4ccccc4OC)c(-c4ccc(C#N)cc4)c3C2)c1CC [Compound 136, 4-[(5S)-5-(4,5-diethyl-1H-1,2,3-triazol-1-yl)-2-(2-methoxyphenyl)-2,4,5,6-tetrahydrocyclopenta[c]pyrazol-3-yl]benzonitrile] | 89% | 16 nM |  |
